Laboratory results taken from US20090012152A1, “Use of Tetramic Acid Derivatives for Controlling Insects from the Genus of the Plane Lice (Sternorrhyncha)” (Bayer CropScience Aktiengesellschaft, priority 2005, published 2009).

Columns and labels:
Assay type in all cases: in vivo
[1] = tested on: Planococcus spp.; assay: Example 29: vines treated against Planococcus spp.; conditions: larvae on grapes, rate %/1: Dursban 0.096, I-4 0.0096
Experimental: In three replications, in plots of a size of 54 m^2, about 10-year-old vines of the cultivar “Napoleon” are treated against Planococcus spp. The application is carried out using a knapsack sprayer. Here, the active compound Example (I-4) (240 SC), in a tank mix with 0.1% a.i. of rapeseed oil methyl ester (500 EW), is tested against the commercial standard Dursban (480 EC), at the stated application rates. The application rate is 864 l of water/ha. Two treatments are carried out, at an interval of 19 days.
Evaluation is carried out 16 and 38 days after the second treatment by rating the kill of the larvae on the grapes.

[2] = tested on: Pemphigus bursarius; assay: Example 3: chrysanthemums, lettuce root aphid; conditions: on roots, spray on above-ground parts 96 g of a.i./ha
Experimental: In three replications, in each case 10 about 5-month-old chrysanthemums (Camilla) in 2 l-vessels are treated against the lettuce root aphid Pemphigus bursarius. Here, the active compound Example (I-4) (240 SC) is applied with a knapsack sprayer operated by pressurized air at the beginning of the infestation at the stated application rates to the above-ground parts of the plants. The soil is covered with a film. The application rate is 600 l of water/ha. 0.1% a.i. of rapeseed oil methyl ester (500 EW) is added to the spray liquor. Omethoate as drip irrigation in a concentration of 0.1% is used for comparison. The application is carried out two days later.
The kill in percent is determined on the roots. […]

[3] = tested on: Myzus persicae; assay: Example 54: bell pepper plants treated against Myzus persicae; conditions: on leaves, g a.i./ha: Provado 50, I-4 48
Experimental: In four replications, plots of a size of about 8.4 m^2 with 36 11-week-old bell pepper plants of the cultivar “Casea dura ikeda” are treated against Myzus persicae. The application is carried out using a knapsack sprayer operated with pressurized air. Here, the active compound Example (I-4) (240 SC), in a tank mix with 0.2% a.i. of rapeseed oil methyl ester (500 EW), is tested against the commercial standard Provado (200 SC), at the stated application rates. The application rate is 600 l of water/ha. There are three applications, in each case at an interval of 7 d.
Evaluation is carried out 1, 7, and 14 days after the last treatment by rating the kill of the animals on the leaves.

[4] = tested on: Selenaspidius articulatus; assay: Example 19: orange trees treated against Selenaspidius articulatus; conditions: 100 d after treatment, on leaves, % a.i.: methidathion 0.05, I-9 0.0288, I-4 0.0144
Experimental: In three replications, 3-year-old orange trees of the cultivar “Pera natal” are treated against Selenaspidius articulatus. The application is carried out using a motor-operated knapsack sprayer. Here, the active compounds Example (I-9) (240 SC) and Example (I-4) (240 SC) at the stated application rate are tested against the standard methidathion (400 EC) in the stated amounts, applied once. The application rate is 3.3 l of water per tree.
Evaluation is carried out 100 days after the treatment by rating the kill on the leaves.

[5] = tested on: Saissetia oleae; assay: Example 14: orange trees (Navelina) treated against Saissetia oleae; conditions: 120 d after treatment, kill on branches, % a.i.: Dursban 0.096, I-4 0.012, I-9 0.0054, pyriproxyfen 0.005
Experimental: In three replications, orange trees of the cultivar “Navelina” are treated against Saissetia oleae. Here, the active compounds Example (I-4) (240 SC) and Example (I-9) (240 SC) in a tank mix with 0.1% of rapeseed oil methyl ester (500 EW) at the stated application rate are tested against the commercial standards Dursban (480 EC) and pyriproxyfen (100 EC) at the stated application rate. The application is carried out using a motor-operated knapsack sprayer. The application rate is 3200 l of water/ha.
Evaluation is carried out 120 days after the treatment by rating the kill of the animals on the branches.

[6] = tested on: Orthezia praelonga; assay: Example 25: orange trees treated against Orthezia praelonga; conditions: population on leaves, % a.i.: methidathion 0.05, I-4 0.0144, I-9 0.0144
Experimental: In two replications, two about 7-year-old orange trees of the cultivar “Pera Rio” are treated against Orthezia praelonga. Here, the active compounds Example (I-4) (240 SC) and Example (I-9) (240 SC), in a tank mix with 0.1% a.i. of Renex, are tested against the commercial standard Methidathion (400 EC), at the stated application rates. The application is carried out using a knapsack sprayer operated with pressurized air. Evaluation is carried out 6 and 16 days after the treatment by rating the kill of the population on the leaves.

[7] = tested on: Psylla piri; assay: Example 5: pear trees treated against Psylla piri; conditions: nymphs on shoots, g a.i./ha/m crown height: amitraz 266, I-4 72
Experimental: In three replications, pear trees of the cultivar “Williams Christ” are treated against Psylla piri. Application is shortly before the eggs hatch. The application is carried out using a barrow-mounted sprayer operated with pressurized air. Here, the active compound Example (I-4) (240 SC) is tested in a tank mix with 0.1% a.i. rapeseed oil methyl ester (500 EW) at the stated amount against the standard amitraz (200 EC) at the stated amount. The application rate is 1000 l of water/ha.
Evaluation is carried out 7, 14 and 21 days after the treatment by rating the kill of the nymphs on the shoots.

[8] = tested on: Saissetia oleae; assay: Example 13: orange trees treated against Saissetia oleae; conditions: nymphs on leaves, g a.i./ha/m crown height: buprofezin 500, I-4 72, I-8 30
Experimental: In three replications, in each case two about 8-year-old orange trees are treated against Saissetia oleae. Here, the active compounds Example (I-4) (240 SC) and Example (I-8) (250 SC) in a tank mix with 0.2% a.i. of rapeseed oil methyl ester (500 EW) at the stated application rate are tested against the commercial standard buprofezin in a tank mix with 0.4% a.i. of Oliocin (800 EW) at the stated application rate. The application is carried out using a motor-operated knapsack sprayer. The application rate is 3000 l of water/ha. Two treatments are carried out, at an interval of 29 days.
Evaluation is carried out 24 and 44 days after the last treatment by rating the kill of the nymphs on the leaves.

With `CCOC(=O)OC1=C(c2cc(C)ccc2C)C(=O)NC12CCC(OC)CC2` (stereo not shown) [Example (I-4)] as the compound, how does the “Kill (%) 16 d” value ([1]; 16 d after second treatment) read?
The value was 94.4%.

What about the “Kill (%) 38 d” value ([1]; 38 d after second treatment) of the same compound?
Its value is 91.9%.

What about the “Kill (%) 9 d” value ([2]; 9 d) of the same compound?
The value was 46.9 (9 d) %.

And the “Kill (%) (17 d)” value ([2]; 17 d)?
Its value is 80.4 (17 d) %.

What about the “Kill (%) 1 d” value ([3]; 1 d after last of three treatments) of the same compound?
The value was 99.1%.

What about the “Kill (%) 7 d” value ([3]; 7 d after last of three treatments) of the same compound?
Its value is 98.5%.

And the “Kill (%) 14 d” value ([3]; 14 d after last of three treatments)?
Its value is 100%.

And the “Kill (%) 100 d” value [4]?
Its value is 70%.

What about the “Effect (%) 120 d” value [5] of the same compound?
The value was 98%.

And the “Kill (%) 6 d” value ([6]; 6 d after treatment)?
The value was 94%.

What about the “Kill (%) 16 d” value ([6]; 16 d after treatment) of the same compound?
Its value is 76%.

What about the “Kill (%) 7 d” value ([7]; 7 d after treatment) of the same compound?
Its value is 100%.

And the “Kill (%) 14 d” value ([7]; 14 d after treatment)?
The value was 100%.

And the “Kill (%) 21 d” value ([7]; 21 d after treatment)?
The value was 100%.

What about the “Kill (%) 24 d” value ([8]; 24 d after last of two treatments) of the same compound?
The value was 53.5%.

What about the “Kill (%) 44 d” value ([8]; 44 d after last of two treatments) of the same compound?
The value was 56.1%.
